# Results as given in patent US11612661B2 (priority 2019, dated 2023).
# Bridge positions count the residues as written; N and C are the ends. Square brackets hold non-standard residues; d marks the D form. Triazole bridges read from a SMILES are 1,4-linked. Peptide text beside a SMILES is read from it. Tyr(3-I) = N[C@@H](Cc1ccc(O)c(I)c1)C(=O)O; Orn(N3) = [N-]=[N+]=NCCC[C@H](N)C(=O)O; Cit = NC(=O)NCCC[C@H](N)C(=O)O; Pra = C#CC[C@H](N)C(=O)O
# What was measured:
# [1] = target: α7 nAChR (Homo sapiens, UniProt P36544); settings: 10 μM; read-out: Partial inhibition of the α7 nAChR
# Chain of α7 nAChR (P36544 23-502 limits assumed): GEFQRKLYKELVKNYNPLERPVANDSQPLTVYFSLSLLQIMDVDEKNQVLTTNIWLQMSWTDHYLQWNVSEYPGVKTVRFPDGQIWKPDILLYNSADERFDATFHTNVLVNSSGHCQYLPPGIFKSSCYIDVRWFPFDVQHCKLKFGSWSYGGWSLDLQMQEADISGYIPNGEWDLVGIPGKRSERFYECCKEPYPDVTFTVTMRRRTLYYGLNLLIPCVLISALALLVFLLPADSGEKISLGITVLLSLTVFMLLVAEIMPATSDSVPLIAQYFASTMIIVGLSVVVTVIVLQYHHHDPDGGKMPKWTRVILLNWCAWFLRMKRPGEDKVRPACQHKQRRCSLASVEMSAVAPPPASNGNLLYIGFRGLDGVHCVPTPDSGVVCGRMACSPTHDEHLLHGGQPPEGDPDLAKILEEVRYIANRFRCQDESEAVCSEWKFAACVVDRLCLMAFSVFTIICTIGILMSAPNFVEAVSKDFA
# [2] = target: rat α9α10 nAChR (Rattus norvegicus, UniProt P43144+Q9JLB5); experiment: cell-based; assay type: cell-based; settings: α9α10 nAChR IC50 (nM) Rat
# Chain of rat α9α10 nAChR (P43144 26-479 limits assumed): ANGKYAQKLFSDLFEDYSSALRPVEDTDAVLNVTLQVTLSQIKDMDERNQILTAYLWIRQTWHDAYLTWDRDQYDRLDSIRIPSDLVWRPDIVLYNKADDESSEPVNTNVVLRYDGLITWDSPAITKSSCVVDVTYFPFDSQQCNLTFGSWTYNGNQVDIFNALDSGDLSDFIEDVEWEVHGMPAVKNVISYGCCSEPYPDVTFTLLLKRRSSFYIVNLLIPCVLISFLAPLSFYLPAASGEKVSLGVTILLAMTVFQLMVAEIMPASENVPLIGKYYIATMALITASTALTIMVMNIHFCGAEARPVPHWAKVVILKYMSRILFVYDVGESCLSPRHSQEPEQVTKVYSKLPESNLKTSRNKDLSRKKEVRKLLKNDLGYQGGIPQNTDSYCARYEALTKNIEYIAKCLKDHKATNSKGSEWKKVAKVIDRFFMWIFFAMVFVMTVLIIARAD
# Chain of rat α9α10 nAChR (Q9JLB5 25-447 limits assumed): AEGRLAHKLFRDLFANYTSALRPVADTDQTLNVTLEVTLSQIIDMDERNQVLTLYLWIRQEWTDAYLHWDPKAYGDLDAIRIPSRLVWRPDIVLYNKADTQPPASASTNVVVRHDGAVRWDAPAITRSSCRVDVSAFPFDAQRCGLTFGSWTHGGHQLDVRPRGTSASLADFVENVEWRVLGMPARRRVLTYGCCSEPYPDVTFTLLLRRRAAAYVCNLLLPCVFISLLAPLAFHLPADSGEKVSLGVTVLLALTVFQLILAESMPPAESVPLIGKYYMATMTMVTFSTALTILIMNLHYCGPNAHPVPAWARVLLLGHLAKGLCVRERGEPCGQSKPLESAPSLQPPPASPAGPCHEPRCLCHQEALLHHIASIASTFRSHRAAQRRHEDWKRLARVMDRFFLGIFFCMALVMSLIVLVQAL
# [3] = test system: chronic constriction injury (CCI) model; parameters: species or system Sprague Dawley rats; settings: rat, in vivo
# [4] = test system: 88 receptors, transporters, enzymes and kinases; settings: 10 μM
# [5] = target: human α9α10 nAChR (Homo sapiens, UniProt Q9GZZ6+Q9UGM1); experiment: cell-based; assay type: cell-based
# Chain of human α9α10 nAChR (Q9UGM1 26-479 limits assumed): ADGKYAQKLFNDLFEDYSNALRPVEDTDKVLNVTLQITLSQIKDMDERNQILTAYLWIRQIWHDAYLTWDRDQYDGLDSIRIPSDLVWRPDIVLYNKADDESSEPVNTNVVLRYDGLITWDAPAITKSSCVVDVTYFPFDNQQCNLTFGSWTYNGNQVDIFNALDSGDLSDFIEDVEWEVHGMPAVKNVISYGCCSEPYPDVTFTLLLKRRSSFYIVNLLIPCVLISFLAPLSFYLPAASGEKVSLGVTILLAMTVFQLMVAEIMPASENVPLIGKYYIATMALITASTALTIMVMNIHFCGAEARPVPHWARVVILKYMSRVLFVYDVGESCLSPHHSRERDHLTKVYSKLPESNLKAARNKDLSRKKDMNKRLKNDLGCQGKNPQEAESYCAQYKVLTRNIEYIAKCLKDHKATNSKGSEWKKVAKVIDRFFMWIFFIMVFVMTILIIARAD
# Chain of human α9α10 nAChR (Q9GZZ6 25-450 limits assumed): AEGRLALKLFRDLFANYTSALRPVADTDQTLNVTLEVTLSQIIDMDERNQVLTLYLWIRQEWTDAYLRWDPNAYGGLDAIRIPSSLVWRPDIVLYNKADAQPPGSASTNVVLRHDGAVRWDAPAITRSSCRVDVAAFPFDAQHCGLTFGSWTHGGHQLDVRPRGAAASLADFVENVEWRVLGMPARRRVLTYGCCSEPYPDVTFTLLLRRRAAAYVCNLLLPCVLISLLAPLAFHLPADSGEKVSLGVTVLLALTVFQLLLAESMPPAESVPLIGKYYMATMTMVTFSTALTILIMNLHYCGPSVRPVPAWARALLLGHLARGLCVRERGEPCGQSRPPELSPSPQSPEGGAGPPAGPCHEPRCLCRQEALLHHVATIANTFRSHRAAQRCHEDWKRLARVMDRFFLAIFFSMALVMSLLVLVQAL
structure (smiles),measurement,setting,value
"C[C@@H](O)[C@@H]1NC(=O)[C@@H]2Cc3cn(nn3)CCC[C@@H](C(=O)N[C@@H](Cc3ccc(O)cc3)C(N)=O)NC(=O)[C@H](CCC(N)=O)NC(=O)[C@H](Cc3ccc(O)c(I)c3)NC(=O)[C@H](CCCNC(N)=O)NC(=O)[C@H](CSSC[C@H](NC(=O)CN)C(=O)N2)NC(=O)[C@H](CCCNC(=N)N)NC(=O)[C@@H]2CCCN2C(=O)[C@H](CC(=O)O)NC1=O [Ib′, L-tyrosinamide, glycyl-L-cysteinyl-L-alanyl-L-threonyl-L-α-aspartyl-L-prolyl-L-arginyl-L-cysteinyl-N5-(aminocarbonyl)-L-ornithyl-L-3-iodotyrosyl-L-glutaminyl-L-norvalyl-cyclic (2→8)-disulfide-cyclic 3^3,12^5-(1H-1,2,3-triazole-4,1-diyl)] (H-GC[Pra]TDPRC[Cit][Tyr(3-I)]Q[Orn(N3)]Y-NH2; disulfide 2-8; triazole 3-12)",inhibition at 10 µM,[1],56%
same,IC50,[2],2.3 ± 0.5 nM
same,Paw withdrawal thresholds relative to vehicle-treated control animals,[3],statistically significant improvement in paw withdrawal thresholds
same,"Off-target effects in panel of 88 receptors, transporters, enzymes and kinases",[4],no off-target effects
same,IC50,[5],48 ± 9 nM
